# Laboratory results published in ChEMBL document CHEMBL1201862, “PubChem BioAssay data set” (2004).
#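 Grown in 96-well plates, cells were treated for 48 hours with each compound at five concentrations. Insufficient inhibition: endpoint recorded as highest concentration tested. GI50: concentration for 50% inhibition of growth.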 The source made the active and inactive calls. Rule as the data show it: active = GI50 up to about 1.1 µM and inactive = higher.
# Legend:
# Assay in all cases: growth of human tumour cells (NCI), 48 h
# [1] = test system: OVCAR-4
# [2] = test system: SK-MEL-5
# [3] = test system: 786-0
# [4] = test system: EKVX
# [5] = test system: DLD-1
# [6] = test system: OVCAR-3
# [7] = test system: ACHN
# [8] = test system: HT-29
# [9] = test system: HCT-116
# [10] = test system: HCC 2998
# [11] = test system: SR
# [12] = test system: KM12
# [13] = test system: HL-60
# [14] = test system: M14
# [15] = test system: Malme-3M
# [16] = test system: M19-MEL
# [17] = test system: NCI-H522
# [18] = test system: XF498
# [19] = test system: SF-539
# [20] = test system: RPMI-8226
# [21] = test system: HOP-18
# [22] = test system: NCI-H23
# [23] = test system: TK-10
# [24] = test system: OVCAR-5
# [25] = test system: HOP-62
# [26] = test system: SK-MEL-2
# [27] = test system: SNB-19
# [28] = test system: A549
# [29] = test system: SN12C
# [30] = test system: SNB-75
# [31] = test system: UACC-257
# [32] = test system: HCT-15
# [33] = test system: SK-MEL-28
# [34] = test system: SNB-78
# [35] = test system: CCRF-CEM
# [36] = test system: UO-31
# [37] = test system: OVCAR-8
# [38] = test system: SW-620
# [39] = test system: SF-295
# [40] = test system: CAKI-1
# [41] = test system: K562
# [42] = test system: MOLT-4
# [43] = test system: DMS-273
# [44] = test system: DMS-114
# [45] = test system: NCI-H460
# [46] = test system: COLO 205
# [47] = test system: NCI-H226
# [48] = test system: LOX IMVI
# [49] = test system: SF-268
# [50] = test system: A498
# [51] = test system: RXF 393
# [52] = test system: LXFL 529
# [53] = test system: KM-20L2
# [54] = test system: SK-OV-3
# [55] = test system: UACC-62
# [56] = test system: U-251
# [57] = test system: IGROV-1
# [58] = test system: HOP-92
smiles,measurement,setting,value
Cc1cc([N+](=O)[O-])c(C)c2c1[nH]c1ccc(Cl)cc12,GI50,[1],> 100 µM (inactive)
same,GI50,[2],> 100 µM (inactive)
same,GI50,[3],> 100 µM (inactive)
same,GI50,[4],> 100 µM (inactive)
same,GI50,[5],> 10 µM (inactive)
same,GI50,[6],38.9 µM (inactive)
same,GI50,[7],> 100 µM (inactive)
same,GI50,[8],89.5 µM (inactive)
same,GI50,[9],> 100 µM (inactive)
same,GI50,[10],> 100 µM (inactive)
same,GI50,[11],45.7 µM (inactive)
same,GI50,[12],> 100 µM (inactive)
same,GI50,[13],58.7 µM (inactive)
same,GI50,[14],> 100 µM (inactive)
same,GI50,[15],> 100 µM (inactive)
same,GI50,[16],> 100 µM (inactive)
same,GI50,[17],18.8 µM (inactive)
same,GI50,[18],> 100 µM (inactive)
same,GI50,[19],> 100 µM (inactive)
same,GI50,[20],50 µM (inactive)
same,GI50,[21],> 100 µM (inactive)
same,GI50,[22],> 100 µM (inactive)
same,GI50,[23],84.7 µM (inactive)
same,GI50,[24],> 100 µM (inactive)
same,GI50,[25],> 100 µM (inactive)
same,GI50,[26],> 100 µM (inactive)
same,GI50,[27],> 100 µM (inactive)
same,GI50,[28],> 100 µM (inactive)
same,GI50,[29],> 100 µM (inactive)
same,GI50,[30],> 100 µM (inactive)
same,GI50,[31],> 100 µM (inactive)
same,GI50,[32],96.2 µM
same,GI50,[33],> 100 µM (inactive)
same,GI50,[34],> 100 µM (inactive)
same,GI50,[35],23.2 µM (inactive)
same,GI50,[36],> 100 µM (inactive)
same,GI50,[37],> 100 µM (inactive)
same,GI50,[38],71.9 µM (inactive)
same,GI50,[39],> 100 µM (inactive)
same,GI50,[40],> 100 µM (inactive)
same,GI50,[41],26.4 µM (inactive)
same,GI50,[42],23.6 µM (inactive)
same,GI50,[43],63.1 µM (inactive)
same,GI50,[44],> 100 µM (inactive)
same,GI50,[45],> 100 µM (inactive)
same,GI50,[46],71 µM (inactive)
same,GI50,[47],> 100 µM (inactive)
same,GI50,[48],> 100 µM (inactive)
same,GI50,[49],> 100 µM (inactive)
CCCC1C(=O)CCc2c(OC)ccc(OC)c21 (configuration not stated),GI50,[1],> 100 µM (inactive)
same,GI50,[2],> 100 µM (inactive)
same,GI50,[3],> 100 µM (inactive)
same,GI50,[4],> 100 µM (inactive)
same,GI50,[5],> 100 µM (inactive)
same,GI50,[6],73.6 µM (inactive)
same,GI50,[7],> 100 µM (inactive)
same,GI50,[8],> 100 µM (inactive)
same,GI50,[9],51.9 µM (inactive)
same,GI50,[10],> 100 µM (inactive)
same,GI50,[12],> 100 µM (inactive)
same,GI50,[50],> 100 µM (inactive)
same,GI50,[13],73.8 µM (inactive)
same,GI50,[14],> 100 µM (inactive)
same,GI50,[51],> 100 µM (inactive)
same,GI50,[15],> 100 µM (inactive)
same,GI50,[16],> 100 µM (inactive)
same,GI50,[18],> 100 µM (inactive)
same,GI50,[19],> 100 µM (inactive)
same,GI50,[20],65.9 µM (inactive)
same,GI50,[21],2.61 µM (inactive)
same,GI50,[22],> 100 µM (inactive)
same,GI50,[23],> 100 µM (inactive)
same,GI50,[24],> 100 µM (inactive)
same,GI50,[25],> 100 µM (inactive)
same,GI50,[26],> 100 µM (inactive)
same,GI50,[27],99.8 µM (inactive)
same,GI50,[28],> 100 µM (inactive)
same,GI50,[29],> 100 µM (inactive)
same,GI50,[30],57.5 µM (inactive)
same,GI50,[52],> 100 µM (inactive)
same,GI50,[53],> 100 µM (inactive)
same,GI50,[31],> 100 µM (inactive)
same,GI50,[54],> 100 µM (inactive)
same,GI50,[32],> 100 µM
same,GI50,[34],> 100 µM (inactive)
same,GI50,[35],72.3 µM (inactive)
same,GI50,[36],17.1 µM (inactive)
same,GI50,[37],92.7 µM (inactive)
same,GI50,[38],> 100 µM (inactive)
same,GI50,[39],> 100 µM (inactive)
same,GI50,[40],> 100 µM (inactive)
same,GI50,[41],59 µM (inactive)
same,GI50,[42],49.1 µM (inactive)
same,GI50,[43],> 100 µM (inactive)
same,GI50,[55],> 100 µM (inactive)
same,GI50,[44],48.2 µM (inactive)
same,GI50,[45],> 100 µM (inactive)
same,GI50,[56],> 100 µM (inactive)
same,GI50,[46],> 100 µM (inactive)
same,GI50,[48],> 100 µM (inactive)
same,GI50,[49],91.8 µM (inactive)
same,GI50,[57],> 100 µM (inactive)
CCN(CC)CCC1CC/C(=C\c2ccc(OC)cc2)C1=O (configuration not stated),GI50,[1],> 100 µM (inactive)
same,GI50,[2],23.6 µM (inactive)
same,GI50,[3],> 100 µM (inactive)
same,GI50,[4],> 100 µM (inactive)
same,GI50,[5],> 100 µM (inactive)
same,GI50,[6],> 100 µM (inactive)
same,GI50,[7],> 100 µM (inactive)
same,GI50,[8],39.3 µM (inactive)
same,GI50,[9],87.9 µM (inactive)
same,GI50,[10],> 100 µM (inactive)
same,GI50,[11],55.8 µM (inactive)
same,GI50,[12],> 100 µM (inactive)
same,GI50,[50],74.8 µM (inactive)
same,GI50,[13],47.8 µM (inactive)
same,GI50,[14],35.5 µM (inactive)
same,GI50,[51],42.3 µM (inactive)
same,GI50,[15],> 100 µM (inactive)
same,GI50,[16],54.8 µM (inactive)
same,GI50,[17],60.7 µM (inactive)
same,GI50,[18],49.8 µM (inactive)
same,GI50,[19],> 100 µM (inactive)
same,GI50,[20],40.9 µM (inactive)
same,GI50,[21],> 100 µM (inactive)
same,GI50,[23],> 100 µM (inactive)
same,GI50,[24],> 100 µM (inactive)
same,GI50,[25],> 100 µM (inactive)
same,GI50,[26],> 100 µM (inactive)
same,GI50,[27],> 100 µM (inactive)
same,GI50,[28],> 100 µM (inactive)
same,GI50,[29],> 100 µM (inactive)
same,GI50,[30],> 100 µM (inactive)
same,GI50,[52],58.5 µM (inactive)
same,GI50,[53],30.3 µM (inactive)
same,GI50,[31],32 µM (inactive)
same,GI50,[32],38.7 µM
same,GI50,[33],74.8 µM (inactive)
same,GI50,[34],81.1 µM (inactive)
same,GI50,[35],> 100 µM (inactive)
same,GI50,[36],58.1 µM (inactive)
same,GI50,[37],> 100 µM (inactive)
same,GI50,[38],> 100 µM (inactive)
same,GI50,[39],> 100 µM (inactive)
same,GI50,[40],> 100 µM (inactive)
same,GI50,[41],40 µM (inactive)
same,GI50,[42],59.6 µM (inactive)
same,GI50,[43],> 100 µM (inactive)
same,GI50,[58],39.5 µM (inactive)
same,GI50,[55],17.5 µM (inactive)
same,GI50,[44],38.6 µM (inactive)
same,GI50,[56],> 100 µM (inactive)
same,GI50,[46],18 µM (inactive)
same,GI50,[47],> 100 µM (inactive)
same,GI50,[48],> 100 µM (inactive)
same,GI50,[49],> 100 µM (inactive)
same,GI50,[57],> 100 µM (inactive)
